Entries after “also recorded” stand apart in the source; their conditions may differ.
Legend:
human BuChE = human BuChE (Homo sapiens, UniProt P06276); assay: Esterase activity assay (modified Ellman), BuChE with butyrylthiocholine; type: biochemical; conditions: for Ki: substrate butyrylthiocholine, pH 8.0, room temperature, from slopes of Lineweaver-Burk plots vs log concentration, read-out: Esterase Ki BuChE(h)
Description: (§1) The esterase activity of BuChE or AChE was determined by a modification of the method described by Ellman et al. (32), using a buffered 5,5′-dithiobis (2-nitrobenzoic acid) (DTNB) solution. Stock DTNB solution consisted of 10 mM DTNB with 18 mM sodium bicarbonate in 0.1 M phosphate buffer, pH 7.0. Working DTNB solution was prepared by mixing 3.6 mL of 10 mM stock DTNB solution with 96.4 mL of 0.1 M phosphate buffer at pH 8.0. The assay was carried out by mixing 2.7.mL of buffered DTNB working solution (pH 8.0), 0.1 mL of BuChE or AChE in 0.005% aqueous gelatin (1 U/mL), and 0.1 mL of 50% aqueous acetonitrile, or a solution of a 2-pyridone compound of the invention in the same solvent, in a quartz cuvette of 1 cm path-length. Absorbance of this solution was calibrated to zero and the reaction was commenced by adding 0.1 mL of aqueous acetylthiocholine (AcSCh) or butyrylthiocholine (BuSCh) solutions of varying concentration (between 1.9 mM and 15 mM). The final volume was always 3.0 mL. The reactions were carried out at room temperature. The rate of change of absorbance (ΔA/min), reflecting the rate of hydrolysis of BuSCh or AcSCh, was recorded every 5 seconds for a total of 1 minute using a Milton-Roy uv-visible spectrophotometer set at λ=412 nm.
(§2) The slopes of Lineweaver-Burk plots versus Log of inhibitor concentration were used to determine the inhibitor constant Ki.
(§3) The effect of increasing amount of exemplified 2-pyridone compounds (Examples 1 to 10) on the activity of human BuChE and AChE is shown in FIGS. 1 to 10.
(§4) The compounds of Examples 1 to 9 inhibited BuChE and AChE to varying degrees. Graphs of the slopes obtained from Lineweaver-Burk double reciprocal graphs versus log of the concentration of each compound gave the inhibition constant Ki for each compound.

human AChE = human AChE (Homo sapiens, UniProt P22303); assay: Esterase activity assay (modified Ellman), AChE with acetylthiocholine; type: biochemical; conditions: substrate acetylthiocholine; for Ki: read-out: Esterase Ki AChE(h)
human AChE, sequence (P22303 32-614): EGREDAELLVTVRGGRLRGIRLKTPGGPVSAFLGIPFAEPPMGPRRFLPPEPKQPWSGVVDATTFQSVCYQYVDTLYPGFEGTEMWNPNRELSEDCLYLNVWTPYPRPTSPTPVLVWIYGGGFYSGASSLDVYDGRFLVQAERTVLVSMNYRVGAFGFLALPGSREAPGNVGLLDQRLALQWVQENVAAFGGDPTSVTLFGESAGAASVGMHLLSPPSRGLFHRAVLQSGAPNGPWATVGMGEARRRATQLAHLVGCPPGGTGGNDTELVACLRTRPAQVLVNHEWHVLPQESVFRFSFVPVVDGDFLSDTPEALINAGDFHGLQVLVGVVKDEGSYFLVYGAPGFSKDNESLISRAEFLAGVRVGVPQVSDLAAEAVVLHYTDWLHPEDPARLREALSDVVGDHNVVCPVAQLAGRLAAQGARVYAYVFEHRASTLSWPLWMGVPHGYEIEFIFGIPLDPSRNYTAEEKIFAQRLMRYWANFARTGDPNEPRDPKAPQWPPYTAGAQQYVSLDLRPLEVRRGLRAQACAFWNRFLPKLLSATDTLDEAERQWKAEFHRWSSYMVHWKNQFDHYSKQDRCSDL
Description: as §1, §2, §3, §4

[1] = test system: trypsin-like enzymatic activity associated with BuChE; assay: Trypsin activity assay (BAPNA hydrolysis, HPLC of PNA), trypsin-like activity associated with BuChE; type: biochemical, human; conditions: substrate BAPNA, Tris buffer pH 8.0, 40° C.; FIG. 11
Description: (§5) The effect of 2-pyridone compounds on trypsin-like enzymatic activity associated with BuChE and that of human trypsin was determined using Nα-benzoyl-DL-arginine-p-nitroanilide (BAPNA) as the substrate. The same procedure was used to study the effect of the compounds on BuChE-trypsin mixture. Reactions were performed in 0.06 M Tris buffer at pH 8.0. […] The incubations were carried out in 1.5 mL Eppendorf tubes by mixing 0.85 mL of 0.06 M Tris buffer (pH 8.0), 0.07 mL of up to 10 mM BAPNA, 0.03 mL of 50% aqueous acetonitrile, or a solution of 2-pyridone compound (typically, a 5 mM working solution) in the same solvent, and 0.05 mL of the enzyme solution (0.5-1.5 U of trypsin in 1 mM hydrochloric acid, or up to 5.0 U of BuChE in 0.005% aqueous gelatin). The final volume of the assay mixture was always 1.0 mL. The enzyme reaction mixture was incubated at 40° C. for 15-45 hours. The use of 1.5 U of trypsin gave an amount of p-nitroaniline (PNA) produced upon cleavage of BAPNA by trypsin after 22 hours of incubation that was similar to the amount of product formed by trypsin-like activity associated with 5 U of BuChE under the same conditions.
(§6) The concentration of the PNA was determined by means of high performance liquid chromatography (HPLC). […] The rate of formation of PNA was calculated by using the following formula: […]

human trypsin = assay: Trypsin activity assay (BAPNA hydrolysis, HPLC of PNA), trypsin; type: biochemical; conditions: substrate BAPNA, Tris buffer pH 8.0, 40° C.; FIG. 12
Description: as §5, §6

[2] = pH 8.0, room temperature, from slopes of Lineweaver-Burk plots vs log concentration

human BuChE, sequence (P06276 29-602): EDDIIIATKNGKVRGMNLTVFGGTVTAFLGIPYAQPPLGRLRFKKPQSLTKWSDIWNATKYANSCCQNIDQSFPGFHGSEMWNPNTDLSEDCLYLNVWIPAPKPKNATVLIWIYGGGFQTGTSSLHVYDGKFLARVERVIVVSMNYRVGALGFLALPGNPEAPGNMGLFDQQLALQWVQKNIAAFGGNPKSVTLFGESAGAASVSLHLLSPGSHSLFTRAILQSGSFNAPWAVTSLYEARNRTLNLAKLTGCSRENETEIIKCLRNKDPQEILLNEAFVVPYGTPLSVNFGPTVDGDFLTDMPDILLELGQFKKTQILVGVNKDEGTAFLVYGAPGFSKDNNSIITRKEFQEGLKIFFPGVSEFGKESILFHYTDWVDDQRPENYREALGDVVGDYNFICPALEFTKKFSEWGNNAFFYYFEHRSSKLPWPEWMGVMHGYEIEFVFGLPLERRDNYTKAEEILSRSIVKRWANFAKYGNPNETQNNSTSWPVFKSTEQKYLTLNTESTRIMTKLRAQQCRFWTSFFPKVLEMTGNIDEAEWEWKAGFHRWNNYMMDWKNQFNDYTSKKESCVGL

In the case of `O=C(NC1CCCCC1)c1ccc(=O)[nH]c1` [Example 7, 5-(N-Cyclohexyl)aminocarbonyl-2-pyridone], the Ki (human BuChE) is reported as 137 µM, the “inhibition of the activity of AChE on acetylthiocholine (in words)” value (human AChE) is reported as “no inhibition” and the “Esterase Ki AChE(h)” value (human AChE; [2]) is reported as “Insignificant inhibition”.
`CCN(CC)Cc1ccc(=O)[nH]c1` [Example 4, 5-(N,N-Diethyl)aminomethyl-2-pyridone] was tested, and the “inhibitory activity towards each cholinesterase studied (comparison)” value (human BuChE; BuChE versus AChE) was “equal inhibitory activity”, the Ki (human BuChE) was 3890 µM and the Ki (human AChE; [2]) was 4770 µM.
In the case of `O=C(c1ccc(=O)[nH]c1)N(Cc1ccccc1)Cc1ccccc1` [Example 1, 5-(N,N-Dibenzyl)aminocarbonyl-2-pyridone], the “effect on trypsin-like activity associated with BuChE (rate of hydrolysis of BAPNA)” value [1] is reported as “increased the rate of hydrolysis; also recorded: considerably enhanced”, the “effect on enzymatic activity of trypsin itself” value (human trypsin) is reported as “do not have direct effect on trypsin alone” and the Ki (human BuChE) is reported as 37.5 µM. For the same compound, the Ki (human AChE; [2]) was 260 µM.
In the case of `CC(C)N(C(=O)c1ccc(=O)[nH]c1)C(C)C` [Example 2, 5-(N,N-Diisopropyl)aminocarbonyl-2-pyridone], the Ki (human BuChE) is reported as 1430 µM and the Ki (human AChE; [2]) is reported as 131 µM.
`CCN(CC)C(=O)c1ccc(=O)[nH]c1` [Example 3, 5-(N,N-Diethyl)aminocarbonyl-2-pyridone] was tested, and the Ki (human BuChE) was 1300 µM and the Ki (human AChE; [2]) was 7600 µM.

From patent US6544986B2, “Pyridones and their use as modulators of serine hydrolase enzymes” (Dalhousie University, priority 2000, dated 2003)
